From patent US20250171437A1 (Agios Pharmaceuticals,Inc., priority 2022, published 2025)

Target: T1, human PAH with the R408W mutation (A375 R408W cells) (Homo sapiens, UniProt P00439, R408W)
T1 construct: expressed in transfected cells
T1 sequence (P00439 1-452 R408W): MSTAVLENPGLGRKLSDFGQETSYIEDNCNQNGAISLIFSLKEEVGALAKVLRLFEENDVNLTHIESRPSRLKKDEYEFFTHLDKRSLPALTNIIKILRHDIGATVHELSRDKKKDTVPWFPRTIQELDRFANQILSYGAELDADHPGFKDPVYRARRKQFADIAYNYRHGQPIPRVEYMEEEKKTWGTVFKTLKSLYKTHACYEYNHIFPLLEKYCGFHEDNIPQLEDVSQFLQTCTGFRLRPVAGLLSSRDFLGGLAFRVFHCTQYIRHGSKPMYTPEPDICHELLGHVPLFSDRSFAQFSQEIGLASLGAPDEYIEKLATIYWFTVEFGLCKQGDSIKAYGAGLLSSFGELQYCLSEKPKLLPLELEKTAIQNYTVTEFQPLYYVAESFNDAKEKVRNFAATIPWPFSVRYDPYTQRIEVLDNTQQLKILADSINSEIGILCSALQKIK
Assay: Cell Based Phenylalanine Flux Assay
Settings: 24 hrs with compound, then 20 μM sepiapterin and 800 μM 13C9,15N-Phenylalanine for 4 hours, 13C-Tyrosine by LC-MS, average where tested multiple times
How it was run: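 A375 cells stably expressing human PAH R408W treated 24 h at 37° C with a 10-point 2-fold dose curve in duplicate, 0.5% DMSO. Then 20 μM sepiapterin and 800 μM 13C9,15N-Phe added for 4 h; 13C-Tyr in media measured by LC-MS to give AC50.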

[1] = A375 cells expressing R408W PAH

Row | SMILES | AC50 [1] | AC50 (A375 R408W cells)
1 | O=C(c1cnn2cc(N3CCN(CC(F)(F)F)CC3)ccc12)N1CCc2[nH]cnc2C1c1nc2cc(F)ccc2o1 (stereo not shown) | ≥ 5000 nM | –
2 | Cn1cc(-c2ccc3c(C(=O)N4CCc5[nH]cnc5[C@H]4c4nc5cc(F)ccc5o4)cnn3c2)cn1 [Example 71, (S)-(4-(5-fluorobenzo[d]oxazol-2-yl)-6,7-dihydro-1H-imidazo[4,5-c]pyridin-5(4H)-yl)(6-(1-methyl-1H-pyrazol-4-yl)pyrazolo[1,5-a]pyridin-3-yl)methanone] | – | 500 to 1000 nM
3 | Cn1nc(C(F)(F)F)nc1C(=O)N1CCc2[nH]cnc2C1c1nc2ccc(F)cc2o1 (stereo not shown) | ≥ 5000 nM | –
4 | Cc1nn(C)cc1-c1nnc(C(=O)N2CCc3[nH]cnc3[C@H]2c2nc3cc(F)ccc3o2)o1 [Example 881, (S)-(5-(1,3-dimethyl-1H-pyrazol-4-yl)-1,3,4-oxadiazol-2-yl)(4-(5-fluorobenzo[d]oxazol-2-yl)-6,7-dihydro-1H-imidazo[4,5-c]pyridin-5(4H)-yl)methanone] | – | 1000 to 5000 nM
5 | Cc1ccc2oc([C@@H]3c4nc[nH]c4CCN3C(=O)c3oc(-c4ccn(C)n4)nc3C(F)F)nc2c1 [Example 755, (S)-(4-(difluoromethyl)-2-(1-methyl-1H-pyrazol-3-yl)oxazol-5-yl)(4-(5-methylbenzo[d]oxazol-2-yl)-6,7-dihydro-1H-imidazo[4,5-c]pyridin-5(4H)-yl)methanone] | – | ≤ 500 nM
6 | Cc1cccc2nc([C@@H]3c4nc[nH]c4CCN3C(=O)c3cnco3)oc12 [Example 611, (S)-(4-(7-methylbenzo[d]oxazol-2-yl)-6,7-dihydro-1H-imidazo[4,5-c]pyridin-5(4H)-yl)(oxazol-5-yl)methanone] | – | 500 to 1000 nM
7 | O=C(c1ocnc1C(F)F)N1CCc2[nH]cnc2[C@H]1c1nc2c(F)c(F)ccc2o1 [Example 350, (S)-(4-(4,5-difluorobenzo[d]oxazol-2-yl)-6,7-dihydro-1H-imidazo[4,5-c]pyridin-5(4H)-yl)(4-(difluoromethyl)oxazol-5-yl)methanone] | – | ≤ 500 nM
8 | Cc1nc(C(C)(C)C#N)oc1C(=O)N1CCc2[nH]cnc2[C@H]1c1nc2cc(F)ccc2o1 [Example 185, (S)-2-(5-(4-(5-fluorobenzo[d]oxazol-2-yl)-4,5,6,7-tetrahydro-1H-imidazo[4,5-c]pyridine-5-carbonyl)-4-methyloxazol-2-yl)-2-methylpropanenitrile] | – | 500 to 1000 nM
9 | CC(C)(F)c1ncc(C(=O)N2CCc3[nH]cnc3[C@@H]2c2nc3cc(F)ccc3o2)o1 [Example 14, (R)-(4-(5-fluorobenzo[d]oxazol-2-yl)-6,7-dihydro-1H-imidazo[4,5-c]pyridin-5(4H)-yl)(2-(2-fluoropropan-2-yl)oxazol-5-yl)methanone] | – | 1000 to 5000 nM
10 | O=C(c1ccnn1C(F)F)N1CCc2[nH]cnc2[C@H]1c1nc2c(F)ccc(F)c2o1 [Example 487, (S)-(4-(4,7-difluorobenzo[d]oxazol-2-yl)-6,7-dihydro-1H-imidazo[4,5-c]pyridin-5(4H)-yl)(1-(difluoromethyl)-1H-pyrazol-5-yl)methanone] | – | ≤ 500 nM
11 | O=C(c1nnc(-c2ccccn2)o1)N1CCc2[nH]cnc2[C@@H]1c1nc2ccccc2o1 [Example 584, (R)-(4-(benzo[d]oxazol-2-yl)-6,7-dihydro-1H-imidazo[4,5-c]pyridin-5(4H)-yl)(5-(pyridin-2-yl)-1,3,4-oxadiazol-2-yl)methanone] | – | 1000 to 5000 nM
12 | O=C(c1oc(-c2ncccn2)nc1C(F)F)N1CCc2[nH]cnc2[C@H]1c1nc2cccc(F)c2o1 [Example 667, (S)-(4-(difluoromethyl)-2-(pyrimidin-2-yl)oxazol-5-yl)(4-(7-fluorobenzo[d]oxazol-2-yl)-6,7-dihydro-1H-imidazo[4,5-c]pyridin-5(4H)-yl)methanone] | – | ≤ 500 nM
13 | O=C(C1CN(CC(F)(F)F)C1)N1CCc2[nH]cnc2C1c1nc2cc(F)ccc2o1 (stereo not shown) | 1000 to 5000 nM | –
14 | Cn1ncnc1C(=O)N1CCc2[nH]cnc2C1c1nc2cccc(F)c2o1 (stereo not shown) | 1000 to 5000 nM | –
15 | NCc1ccc2c(C(=O)N3CCc4[nH]cnc4C3c3nc4cc(F)ccc4o3)cnn2c1 (stereo not shown) | ≥ 5000 nM | –
16 | O=C(c1oc(-c2ccncc2)nc1C(F)F)N1CCc2[nH]cnc2[C@@H]1c1nc2cccc(F)c2o1 [Example 559, (R)-(4-(difluoromethyl)-2-(pyridin-4-yl)oxazol-5-yl)(4-(7-fluorobenzo[d]oxazol-2-yl)-6,7-dihydro-1H-imidazo[4,5-c]pyridin-5(4H)-yl)methanone] | – | ≤ 500 nM
17 | C[C@@H](O)c1nc(C(F)F)c(C(=O)N2CCc3[nH]cnc3[C@@H]2c2nc3cc(F)ccc3o2)o1 [Example 152, (4-(difluoromethyl)-2-((R)-1-hydroxyethyl)oxazol-5-yl)((R)-4-(5-fluorobenzo[d]oxazol-2-yl)-6,7-dihydro-1H-imidazo[4,5-c]pyridin-5(4H)-yl)methanone] | – | 1000 to 5000 nM

Row | SMILES | AC50 [1] | AC50 (A375 R408W cells)
18 | Cn1nccc1-c1nnc(C(=O)N2CCc3[nH]cnc3[C@H]2c2nc3cc(F)ccc3o2)o1 [Example 131, (S)-(4-(5-fluorobenzo[d]oxazol-2-yl)-6,7-dihydro-1H-imidazo[4,5-c]pyridin-5(4H)-yl)(5-(1-methyl-1H-pyrazol-5-yl)-1,3,4-oxadiazol-2-yl)methanone] | – | 500 to 1000 nM
19 | O=C(c1nnc(-c2ncccc2F)o1)N1CCc2[nH]cnc2C1c1nc2cc(C(F)(F)F)ccc2o1 (stereo not shown) | 1000 to 5000 nM | –
20 | COCCNc1ccc2c(C(=O)N3CCc4[nH]cnc4C3c3nc4cc(F)ccc4o3)cnn2c1 (stereo not shown) | 1000 to 5000 nM | –
21 | O=C(c1cnn2cc(CCN3CC(F)C3)ccc12)N1CCc2[nH]cnc2C1c1nc2cc(F)ccc2o1 (stereo not shown) | 1000 to 5000 nM | –
22 | Cn1nc(Cl)cc1C(=O)N1CCc2[nH]cnc2[C@H]1c1nc2cc(F)ccc2o1 [Example 127, (S)-(3-chloro-1-methyl-1H-pyrazol-5-yl)(4-(5-fluorobenzo[d]oxazol-2-yl)-6,7-dihydro-1H-imidazo[4,5-c]pyridin-5(4H)-yl)methanone] | – | 500 to 1000 nM
23 | CC(C)(C)c1nc(C(F)F)c(C(=O)N2CCc3[nH]cnc3[C@@H]2c2nc3cc(F)ccc3o2)o1 [Example 754, (R)-(2-(tert-butyl)-4-(difluoromethyl)oxazol-5-yl)(4-(5-fluorobenzo[d]oxazol-2-yl)-6,7-dihydro-1H-imidazo[4,5-c]pyridin-5(4H)-yl)methanone] | – | 1000 to 5000 nM
24 | Cn1nc(Br)nc1C(=O)N1CCc2[nH]cnc2[C@H]1c1nc2c(F)cccc2o1 [Example 471, (S)-(3-bromo-1-methyl-1H-1,2,4-triazol-5-yl)(4-(4-fluorobenzo[d]oxazol-2-yl)-6,7-dihydro-1H-imidazo[4,5-c]pyridin-5(4H)-yl)methanone] | – | 500 to 1000 nM
25 | O=C(c1nnc(-c2ccc(F)cc2F)o1)N1CCc2[nH]cnc2[C@@H]1c1nc2cc(F)ccc2o1 [Example 83, (R)-(5-(2,4-difluorophenyl)-1,3,4-oxadiazol-2-yl)(4-(5-fluorobenzo[d]oxazol-2-yl)-6,7-dihydro-1H-imidazo[4,5-c]pyridin-5(4H)-yl)methanone] | – | 1000 to 5000 nM
26 | O=C(c1nnc(-c2ccc(F)cn2)o1)N1CCc2[nH]cnc2[C@@H]1c1nc2cc(F)ccc2o1 [Example 34, (R)-(4-(5-fluorobenzo[d]oxazol-2-yl)-6,7-dihydro-1H-imidazo[4,5-c]pyridin-5(4H)-yl)(5-(5-fluoropyridin-2-yl)-1,3,4-oxadiazol-2-yl)methanone] | – | 1000 to 5000 nM
27 | COCc1ccc2c(C(=O)N3CCc4[nH]cnc4[C@@H]3c3nc4cc(C)ccc4o3)cnn2c1 [Example 878, (R)-(6-(methoxymethyl)pyrazolo[1,5-a]pyridin-3-yl)(4-(5-methylbenzo[d]oxazol-2-yl)-6,7-dihydro-1H-imidazo[4,5-c]pyridin-5(4H)-yl)methanone] | – | ≥ 5000 nM
28 | O=C(c1cnn(-c2ccccn2)c1)N1CCc2[nH]cnc2[C@@H]1c1nc2cc(F)ccc2o1 [Example 880, (R)-(4-(5-fluorobenzo[d]oxazol-2-yl)-6,7-dihydro-1H-imidazo[4,5-c]pyridin-5(4H)-yl)(1-(pyridin-2-yl)-1H-pyrazol-4-yl)methanone] | – | 1000 to 5000 nM
29 | CC(C)(O)c1cc(C(=O)N2CCc3[nH]cnc3C2c2nc3ccc(F)cc3o2)no1 (stereo not shown) | 1000 to 5000 nM | –
30 | Cc1cccc2nc([C@H]3c4nc[nH]c4CCN3C(=O)c3cnn4cc(N5CCC(O)CC5)ccc34)oc12 (single isomer, unassigned) | ≥ 5000 nM | –
31 | Cc1ccc2oc([C@H]3c4nc[nH]c4CCN3C(=O)c3nnc(-c4ncccc4F)o3)nc2c1 [Example 654, (R)-(5-(3-fluoropyridin-2-yl)-1,3,4-oxadiazol-2-yl)(4-(5-methylbenzo[d]oxazol-2-yl)-6,7-dihydro-1H-imidazo[4,5-c]pyridin-5(4H)-yl)methanone] | – | 1000 to 5000 nM
32 | CN(C)CCOc1ccc2c(C(=O)N3CCc4[nH]cnc4C3c3nc4cc(F)ccc4o3)cnn2c1 (stereo not shown) | 1000 to 5000 nM | –
33 | O=C(c1nnc(-c2ccc(C(F)(F)F)cn2)o1)N1CCc2[nH]cnc2C1c1nc2cc(F)ccc2o1 (stereo not shown) | 1000 to 5000 nM | –
34 | Cn1nc(Br)nc1C(=O)N1CCc2[nH]cnc2[C@H]1c1nc2cccc(F)c2o1 [Example 473, (S)-(3-bromo-1-methyl-1H-1,2,4-triazol-5-yl)(4-(7-fluorobenzo[d]oxazol-2-yl)-6,7-dihydro-1H-imidazo[4,5-c]pyridin-5(4H)-yl)methanone] | – | 500 to 1000 nM
